The results in this text go back to US8653087B2, “Pyrido [5, 4-D] pyrimidines as cell proliferation inhibitors” (Boehringer Ingelheim International GmbH, priority 2008, dated 2014).

For this test, the target named is B-Raf (V600E)-kinase (Homo sapiens (Human), UniProt P15056, V600E). The test can be described thus: Kinase test B-RAF (V600E). In kind it is biochemical. Particulars: B-RAF (V600E) kinase test, 250 μM ATP. A digest of the protocol: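 Read-out is DELFIA europium TRF of phospho-MEK (Ser217/221) on biotinylated MEK1 bound to streptavidin plates, IC50 from dose-response. Reaction ran 60 min at RT with 250 μM ATP, after a 24 h RT preincubation of compound with B-Raf (V600E) kinase, 5% DMSO final.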
Sequence of B-Raf (V600E)-kinase (P15056 whole entry V600E): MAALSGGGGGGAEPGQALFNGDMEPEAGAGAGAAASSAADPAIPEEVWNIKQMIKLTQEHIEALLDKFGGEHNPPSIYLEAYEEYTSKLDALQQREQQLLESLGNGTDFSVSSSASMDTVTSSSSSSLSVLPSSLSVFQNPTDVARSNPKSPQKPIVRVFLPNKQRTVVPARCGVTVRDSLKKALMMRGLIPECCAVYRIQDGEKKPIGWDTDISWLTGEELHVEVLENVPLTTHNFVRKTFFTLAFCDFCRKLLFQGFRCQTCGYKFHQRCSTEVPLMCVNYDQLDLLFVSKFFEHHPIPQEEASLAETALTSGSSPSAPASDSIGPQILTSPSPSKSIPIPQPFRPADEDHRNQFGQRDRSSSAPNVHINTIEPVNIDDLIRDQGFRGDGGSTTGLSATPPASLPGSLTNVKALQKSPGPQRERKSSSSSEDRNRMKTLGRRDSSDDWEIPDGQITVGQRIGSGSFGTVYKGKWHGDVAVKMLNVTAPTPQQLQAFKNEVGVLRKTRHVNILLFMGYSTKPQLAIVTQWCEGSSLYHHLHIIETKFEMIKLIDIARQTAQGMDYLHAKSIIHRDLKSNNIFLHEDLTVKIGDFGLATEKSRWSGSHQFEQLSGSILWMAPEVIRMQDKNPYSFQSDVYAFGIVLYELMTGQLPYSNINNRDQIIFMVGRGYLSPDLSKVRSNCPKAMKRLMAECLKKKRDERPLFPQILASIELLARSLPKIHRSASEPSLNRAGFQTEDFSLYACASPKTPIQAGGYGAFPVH

The IC50 is the concentration that gives 50% inhibition. In turn, `Cc1ccc(NC(=O)c2cccc(C(F)(F)F)c2)cc1Nc1ncnc2c(N)nc(N3CCN(C)CC3)nc12` [II-1] returned a half-inhibitory concentration (IC50) of 26 nM. `Cc1ccc(NS(=O)(=O)C2CC2)cc1Nc1ncnc2cnc(N3CCN(C)CC3)nc12` [IV-63] returned a concentration for half-maximal inhibition (IC50) of 595 nM.

For `CCC(C)S(=O)(=O)Nc1ccc(C)c(Nc2ncnc3cnc(N4CCN(C)CC4)nc23)c1` (stereo not drawn) [IV-56], the IC50 is 10000 nM. For `COc1c(NC(=O)c2ccc(C)c(Nc3ncnc4cnc(N(C)CCN(C)C)nc34)c2)cc(C(C)(C)C)cc1NS(C)(=O)=O` [III-199] the value was 23 nM; for `Cc1ccc(C(=O)NCC2CCOC2)cc1Nc1ncnc2cnc(N(C)CCN(C)C)nc12` (stereo not drawn) [III-197], above 15000 nM. In turn, `COCCN1CCN(c2ncc3ncnc(Nc4cc(C(=O)Nc5cc(C(F)(F)F)ccc5Cl)ccc4C)c3n2)CC1` [III-533] came in with an IC50 of 6 nM.

On to `Cc1ccc(C(=O)Nc2cccc(C(F)(F)F)c2)cc1Nc1ncnc2c(N)nc(N3C[C@H]4C[C@@H]3CN4C)nc12` [I-65], for which the IC50 was below 1 nM. For `Cc1ccc(C(=O)Nc2cc(CN3CCCC3)cc(C(F)(F)F)c2)cc1Nc1ncnc2cnc(N3CCCCC3)nc12` [III-106], half-maximal inhibition (IC50) was put at 2 nM. Molecule `COc1ccc(NC(=O)c2ccc(C)c(Nc3ncnc4cnc(N5CCN(CC6CCCN(C)C6)CC5)nc34)c2)cc1C(F)(F)F` (stereo not drawn) [III-554] had an IC50 of 3 nM.

Molecule `COc1ncc2ncnc(Nc3cc(C(=O)Nc4ccc(OC)c(C(F)(F)F)c4)ccc3C)c2n1` [III-569] showed an IC50 of 2 nM. The molecule `Cc1ccc(C(=O)Nc2ccc3c(c2)C(C)(C)C(=O)N3CCN2CCCC2)cc1Nc1ncnc2cnc(N(C)CCN(C)C)nc12` [III-196] registered a half-inhibitory concentration (IC50) of 16 nM. As to `COc1ccc(NC(=O)c2ccc(C)c(Nc3ncnc4c(N)nc(N5CCN(CC6CCN(C)CC6)CC5)nc34)c2)cc1C(F)(F)F` [I-16], the midpoint of inhibition, the IC50, lay at 1 nM. `CC1=Nc2ccc(NC(=O)c3ccc(C)c(Nc4ncnc5cnc(N6CCC(CN7CCCC7)CC6)nc45)c3)cc2C1(C)C` [III-601] returned a half-inhibitory concentration (IC50) of 6 nM. Regarding `COc1ncc2ncnc(Nc3cc(NC(=O)c4ccc(OC)c(C(F)(F)F)c4)ccc3C)c2n1` [IV-42], the IC50 was determined as 13 nM. For `COc1ccc(NC(=O)c2ccc(C)c(Nc3ncnc4cnc(N5CCC(CN(C)C)CC5)nc34)c2)cc1C(F)(F)F` [III-599], half-maximal inhibition (IC50) required 1 nM.

`COC[C@@H]1CCCN1c1ncc2ncnc(Nc3cc(C(=O)Nc4ccc(OC)c(C(F)(F)F)c4)ccc3C)c2n1` [III-545] gave an IC50 of 2 nM. The figure for `COCCN1CCN(c2ncc3ncnc(N(C)c4cc(C(=O)Nc5ccc(OC)c(C(F)(F)F)c5)ccc4C)c3n2)CC1` [III-586] is 193 nM.

`COc1ccc(C(=O)Nc2ccc(OC)c(C(F)(F)F)c2)cc1Nc1ncnc2cnc(N3CCCCC3)nc12` [III-23] showed an IC50 of 7 nM. For `CCN1CCN(c2cc(NC(=O)c3ccc(C)c(Nc4ncnc5cnc(N(C)CCOC)nc45)c3)cc(C(F)(F)F)c2)CC1` [III-470] the value was 2 nM. The molecule `Cc1ccc(C(=O)Nc2ccc(C(F)(F)F)cc2)cc1Nc1ncnc2c(N)nc(N3CCN(C4CCN(C)CC4)CC3)nc12` [I-7] registered an IC50 of 3 nM. The molecule `Cc1ccc(C(=O)Nc2cc(C(C)(C)C)on2)cc1Nc1ncnc2cnc(N3CCOCC3)nc12` [III-516] registered an IC50 below 1 nM.

`CC(C)(C)c1cc(NC(=O)c2ccc(C(F)(F)F)c(Nc3ncnc4cnc(N5CCCCCC5)nc34)c2)no1` [III-57] returned a half-inhibitory concentration (IC50) of 1830 nM. `Cc1cn(-c2ncc3ncnc(Nc4cc(C(=O)Nc5cc(C(C)(C)C)on5)ccc4C)c3n2)cn1` [III-367] had an IC50 of 2 nM.

The molecule `Cc1ccc(C(=O)Nc2cccc(C(F)(F)F)c2)cc1Nc1ncnc2cnc(N3CCCC3)nc12` [III-266] gave an IC50 of 1 nM. Molecule `Cc1ccc(C(=O)Nc2cc(C(F)(F)F)ccn2)cc1Nc1ncnc2cnc(N3CCCN(C)CC3)nc12` [III-283] showed an IC50 of 3 nM. For `Cc1ccc(C(=O)Nc2cccc(C(C)(C)C)c2)cc1Nc1ncnc2cnc(N3CCCC3)nc12` [III-272] the value was 2 nM; for `Cc1ccc(C(=O)Nc2cc(C(F)(F)F)ccn2)cc1Nc1ncnc2cnc(N(C)CCN(C)C)nc12` [III-279], 6 nM; for `CN1CCC(N2CCN(c3nc(N)c4ncnc(Nc5cccc(C(=O)Nc6cccc(C(F)(F)F)c6)c5)c4n3)CC2)CC1` [I-21], 22 nM. On to `COc1ccc(C(=O)Nc2ccc(OC)c(C(F)(F)F)c2)cc1Nc1ncnc2cnc(N3CCOCC3)nc12` [III-25], for which the 50% inhibitory concentration (IC50) was found to be 2 nM.

For the molecule `Cc1ccc(C(=O)Nc2ccc(N(C)CCN(C)C)c(C(F)(F)F)c2)cc1Nc1ncnc2cnc(NCc3cccnc3)nc12` [III-129], the half-inhibitory concentration (IC50) is 2 nM. In turn, `Cc1ccc(C(=O)NCc2ccc(C(F)(F)F)cc2)cc1Nc1ncnc2cnc(N3CCCCC3)nc12` [III-246] came in with a concentration for half-maximal inhibition (IC50) of 29 nM. `COc1ccc(C(=O)Nc2ccc(OC)c(C(F)(F)F)c2)cc1Nc1ncnc2cnc(N(C)CCN(C)C)nc12` [III-18] showed an IC50 of 4 nM. On to `CCS(=O)(=O)Nc1ccc(C)c(Nc2ncnc3cnc(N4CCN(C)CC4)nc23)c1` [IV-64], for which inhibition was half-maximal at 521 nM (IC50). For the molecule `Cc1ccc(NS(=O)(=O)c2cccc(C(F)(F)F)c2)cc1Nc1ncnc2cnc(N3CCN(C)CC3)nc12` [IV-61], it took 10000 nM to reach half-maximal inhibition (IC50). `Cn1nc(C(C)(C)C)cc1NC(=O)c1cc(Cl)cc(Nc2ncnc3cnc(N4CCCC4)nc23)c1` [III-377] came in with an IC50 of 4 nM. On to `COCCN1CCN(c2ncc3ncnc(Nc4cc(C(=O)Nc5cc(C(C)(C)C)ccc5OC)ccc4C)c3n2)CC1` [III-422], for which the IC50 turned out to be 5 nM. The figure for `Cc1ccc(C(=O)Nc2cc(CN3CCCC3)cc(C(F)(F)F)c2)cc1Nc1ncnc2cnc(N3CCSCC3)nc12` [III-99] is 5 nM; for `COCCNc1ncc2ncnc(Nc3cc(C(=O)Nc4cc(CN5CCCC5)cc(C(F)(F)F)c4)ccc3C)c2n1` [III-110] it is 1 nM. `CN(CCN1CCCC1)c1ncc2ncnc(Nc3cc(C(=O)Nc4cc(C(C)(C)C)on4)ccc3F)c2n1` [III-317] gave an IC50 of 14 nM. The figure for `Cc1ccc(C(=O)Nc2cccc(C(F)(F)F)c2)cc1Nc1ncnc2c(N)nc(N3CCCNCC3)nc12` [I-59] is 1 nM; for `Cc1ccc(C(=O)Nc2cc(C(C)(C)C)n[nH]2)cc1Nc1ncnc2c(N)nc(N3CCN(C4CCCC4)CC3)nc12` [I-39] it is 5 nM; for `CN1CCN(c2cc(NC(=O)c3ccc(F)c(Nc4ncnc5cnc(NC6CCOC6)nc45)c3)cc(C(F)(F)F)c2)CC1` (stereo not drawn) [III-388] it is below 1 nM. Molecule `Cc1ccc(C(=O)Nc2cccc(C(C)(C)C)c2)cc1Nc1ncnc2cnc(N3CCNCC3)nc12` [III-341] came in with a half-maximal inhibitory concentration (IC50) below 1 nM. `Cc1ccc(C(=O)Nc2cc(OCCN(C)C)cc(C(F)(F)F)c2)cc1Nc1ncnc2cnc(NCCF)nc12` [III-144] had an IC50 below 1 nM. As for `COCCN1CCN(c2ncc3ncnc(Nc4cc(C(=O)Nc5cc(C(F)(F)F)ccn5)ccc4C)c3n2)CC1` [III-426], the IC50 was below 1 nM. As to `COc1ccc(C(=O)Nc2ccc(C)c(Nc3ncnc4cnc(N(C)C)nc34)c2)cc1C(F)(F)F` [IV-15], the half-inhibitory concentration (IC50) came out at 3 nM. `Cc1ccc(C(=O)Nc2cccc(C(C)(C)C#N)c2)cc1Nc1ncnc2cnc(N3CCOCC3)nc12` [III-322] registered an IC50 of 1 nM. For `Cc1ccc(C(=O)Nc2cccc(OC(F)(F)F)c2)cc1Nc1ncnc2cnc(N3CCCC3)nc12` [III-270] the value was 20 nM.
